Assay results reported in patent US5008260A, “Cephem derivatives” (Eisai Co., Ltd., priority 1985, dated 1991).
Converted amounts (≈) assume the structure as drawn.

Experiments:
[1] = mouse, intravenous injection; prior-art compound; cited from earlier work
[2] = test system: Pseudomonas aeruginosa EP-01; experiment: Antibacterial activity (MIC), Pseudomonas aeruginosa EP-01; type: cell-based; conditions: EP01
[3] = test system: Staphylococcus aureus E31106; experiment: Antibacterial activity (MIC), Staphylococcus aureus E31106; type: cell-based; conditions: Staphylococcus aureus E31106, lactamase producing bacteria
[4] = test system: Citrobacter freundii EC-34; experiment: Antibacterial activity (MIC), Citrobacter freundii EC-34; type: cell-based; conditions: EC34; Citrobacter freundii EC-34, lactamase producing bacteria
[5] = test system: Pseudomonas maltophilia E04004; experiment: Antibacterial activity (MIC), Pseudomonas maltophilia E04004; type: cell-based; conditions: Stenotrophomonas maltophilia
[6] = test system: Staphylococcus aureus 209-P; experiment: Antibacterial activity (MIC), Staphylococcus aureus 209-P; type: cell-based
[7] = test system: Serratia marcescens ES-75; experiment: Antibacterial activity (MIC), Serratia marcescens ES-75; type: cell-based; conditions: ES75
[8] = Acute toxicity LD50 (mouse, intravenous injection); conditions: in vivo
Escherichia coli NIHJ = experiment: Antibacterial activity (MIC), Escherichia coli NIHJ; type: cell-based

| Compound | acute toxic value LD50 [1] [mg/kg] | MIC [2] [µg/mL] | MIC [3] [µg/mL] | MIC [4] [µg/mL] | MIC [5] [µg/mL] | MIC [6] [µg/mL] | MIC [7] [µg/mL] | LD50 [8] [mg/kg] | MIC (Escherichia coli NIHJ) [µg/mL] |
| --- | --- | --- | --- | --- | --- | --- | --- | --- | --- |
| CO/N=C(\C(=O)N[C@@H]1C(=O)N2C(C(=O)[O-])=C(C[N+]34CCC(CC3)CC4)CS[C@H]12)c1csc(N)n1 [7β-[(Z)-2-(2-aminothiazol-4-yl)-2-methoxyiminoacetamido]-3-(1-quinuclidinio)methyl-3-cephem-4-carboxylate] | ≤ 100 | – | – | – | – | – | – | – | – |
| CO/N=C(\C(=O)N[C@@H]1C(=O)N2C(C(=O)[O-])=C(C[N+]34CCC(O)(CC3)C4)CS[C@H]12)c1csc(N)n1 [Example 1, 7β-[(Z)-2-(2-Aminothiazol-4-yl)-2-methoxyiminoacetamido]-3-(4-hydroxy-1,4-methylene-1-piperidinio)methyl-3-cephem-4-carboxylate] | – | 1.56 (≈ 3.07 µM) | 100 (≈ 197 µM) | 0.1 (≈ 0.197 µM) | 25 (≈ 49.2 µM) | 0.8 (≈ 1.57 µM) | 0.1 (≈ 0.197 µM) | > 3000 | 0.05 (≈ 0.0983 µM) |
| CO/N=C(\C(=O)N[C@@H]1C(=O)N2C(C(=O)[O-])=C(C[N+]34CCC(O)(CC3)C4)CS[C@H]12)c1nsc(N)n1 [Example 2, 7β-[(Z)-2-(5-Amino-1,2,4-thiadiazol-3-yl)-2-methoxyiminoacetamido]-3-(4-hydroxy-1,4-methylene-1-piperidinio)methyl-3-cephem-4-carboxylate] | – | 0.8 (≈ 1.57 µM) | 50 (≈ 98.1 µM) | 0.1 (≈ 0.196 µM) | 12.5 (≈ 24.5 µM) | 0.8 (≈ 1.57 µM) | 0.2 (≈ 0.392 µM) | > 3000 | 0.1 (≈ 0.196 µM) |
| CO/N=C(\C(=O)N[C@@H]1C(=O)N2C(C(=O)[O-])=C(C[N+]34CCC(O)(CC3)CC4)CS[C@H]12)c1csc(N)n1 [Example 3, 7β-[(Z)-2-(2-Aminothiazol-4-yl)-2-methoxyiminoacetamido]-3-(4-hydroxy-1-quinuclidinio)methyl-3-cephem-4-carboxylate] | – | 1.56 (≈ 2.99 µM) | 100 (≈ 191 µM) | 0.1 (≈ 0.191 µM) | 6.25 (≈ 12 µM) | 0.8 (≈ 1.53 µM) | 0.1 (≈ 0.191 µM) | > 3000 | 0.05 (≈ 0.0957 µM) |
| CO/N=C(\C(=O)N[C@@H]1C(=O)N2C(C(=O)[O-])=C(C[N+]34CCC(O)(CC3)CC4)CS[C@H]12)c1nsc(N)n1 [Example 4, 7β-[(Z)-2-(5-Amino-1,2,4-thiadiazol-3-yl)-2-methoxyiminoacetamido]-3-(4-hydroxy-1-quinuclidinio)methyl-3-cephem-4-carboxylate] | – | 0.8 (≈ 1.53 µM) | 25 (≈ 47.7 µM) | 0.1 (≈ 0.191 µM) | 6.25 (≈ 11.9 µM) | 1.56 (≈ 2.98 µM) | 0.2 (≈ 0.382 µM) | > 3000 | 0.1 (≈ 0.191 µM) |
| CO/N=C(\C(=O)N[C@@H]1C(=O)N2C(C(=O)[O-])=C(C[N+]34CCC(C(N)=O)(CC3)CC4)CS[C@H]12)c1csc(N)n1 [Example 5, 7β-[(Z)-2-(2-Aminothiazol-4-yl)-2-methoxyiminoacetamido]-3-(4-carbamoyl-1-quinuclidinio)methyl-3-cephem-4-carboxylate] | – | 1.56 (≈ 2.84 µM) | 100 (≈ 182 µM) | 0.1 (≈ 0.182 µM) | 12.5 (≈ 22.7 µM) | 1.56 (≈ 2.84 µM) | 0.05 (≈ 0.091 µM) | > 3000 | 0.05 (≈ 0.091 µM) |
| CO/N=C(\C(=O)N[C@@H]1C(=O)N2C(C(=O)[O-])=C(C[N+]34CCC(C(N)=O)(CC3)CC4)CS[C@H]12)c1nsc(N)n1 [Example 6, 7β-[(Z)-2-(5-Amino-1,2,4-thiadiazol-3-yl)-2-methoxyiminoacetamido]-3-(4-carbamoyl-1-quinuclidinio)methyl-3-cephem-4-carboxylate] | – | 0.4 (≈ 0.726 µM) | 25 (≈ 45.4 µM) | 0.1 (≈ 0.182 µM) | 3.13 (≈ 5.68 µM) | 3.13 (≈ 5.68 µM) | 0.2 (≈ 0.363 µM) | > 3000 | 0.1 (≈ 0.182 µM) |
| CO/N=C(\C(=O)N[C@@H]1C(=O)N2C(C(=O)[O-])=C(C[N+]34CCC(CO)(CC3)CC4)CS[C@H]12)c1nsc(N)n1 [Example 14, 7β-[(Z)-2-(5-Amino-1,2,4-thiadiazol-3-yl)-2-methoxyiminoacetamido]-3-[4-hydroxymethyl-1-quinuclidinio]methyl-3-cephem-4-carboxylate] | – | 0.8 (≈ 1.49 µM) | 50 (≈ 93 µM) | 0.1 (≈ 0.186 µM) | 3.13 (≈ 5.82 µM) | 1.56 (≈ 2.9 µM) | 0.2 (≈ 0.372 µM) | – | 0.1 (≈ 0.186 µM) |
| CO/N=C(\C(=O)N[C@@H]1C(=O)N2C(C(=O)[O-])=C(C[N+]34CCC(C)(CC3)CC4)CS[C@H]12)c1nsc(N)n1 [Example 15, 7β-[(Z)-2-(5-Amino-1,2,4-thiadiazol-3-yl)-2-methoxyiminoacetamido]-3-(4-methyl-1-quinuclidinio)methyl-3-cephem-4-carboxylate] | – | 0.8 (≈ 1.53 µM) | 50 (≈ 95.9 µM) | 0.05 (≈ 0.0959 µM) | 1.56 (≈ 2.99 µM) | 0.8 (≈ 1.53 µM) | 0.2 (≈ 0.383 µM) | – | 0.05 (≈ 0.0959 µM) |
